Source: patent US6399615B1, “Farnesyl protein transferase inhibitors” (Schering Corporation, priority 1997, dated 2002)

Legend:
[1] = target: farnesyl protein transferase (Homo sapiens, UniProt P49354+P49356); experiment: FPT IC50 (inhibition of farnesyl protein transferase, in vitro enzyme assay); format: biochemical
Experimental: (§1) FPT IC50 (inhibition of farnesyl protein transferase, in vitro enzyme assay) and COS Cell IC50 (Cell-Based Assay) were determined following the assay procedures described in WO 95/10516, published Apr. 20, 1995. GGPT IC50 (inhibition of geranylgeranyl protein transferase, in vitro enzyme assay), Cell Mat Assay, and anti-tumor activity (in vivo anti-tumor studies) could be determined by the assay procedures described in WO 95/10516. The disclosure of WO 95/10516 is incorporated herein by reference thereto.

[2] = test system: COS Cell; experiment: COS Cell IC50 (Cell-Based Assay); conditions: COS cells
Experimental: as §1

[3] = test system: Human tumor cells; experiment: Soft Agar Assay (anchorage-independent growth); format: cell-based; conditions: colony growth in soft agar
Experimental: Anchorage-independent growth is a characteristic of tumorigenic cell lines. Human tumor cells are suspended in growth medium containing 0.3% agarose and an indicated concentration of a farnesyl transferase inhibitor. The solution is overlayed onto growth medium solidified with 0.6% agarose containing the same concentration of farnesyl transferase inhibitor as the top layer. After the top layer is solidified, plates are incubated for 10-16 days at 37° C. under 5% CO2 to allow colony outgrowth. After incubation, the colonies are stained by overlaying the agar with a solution of MTT (3-[4,5-dimethyl-thiazol-2-yl]-2,5-diphenyltetrazolium bromide, Thiazolyl blue) (1 mg/mL in PBS). Colonies can be counted and the IC50's can be determined.

Compound	IC50 [1]	melting point	IC50 [2]	IC50 [3]
O=C(O)[C@H]1CC[C@H](C(=O)N2CCC([C@H]3c4ncc(Br)cc4CCc4cc(Cl)cc(Br)c43)CC2)CC1 [Example 5]	0.046 µM	138 to 140 °C	–	–
O=C(O)Cc1ccc(CC(=O)N2CCC([C@H]3c4ncc(Br)cc4CCc4cc(Cl)cc(Br)c43)CC2)cc1 [Example 3]	0.0016 µM	186 to 189 °C	0.38 µM	–
CC(C)(C)OC(=O)C[C@H]1CC[C@@H](C(=O)N2CCC([C@H]3c4ncc(Br)cc4CCc4cc(Cl)cc(Br)c43)CC2)CC1 [Example 9]	0.044 µM	98 to 102 °C	–	–
O=C(Cc1ccccc1C(=O)N1CCOCC1)N1CCC([C@H]2c3ncc(Br)cc3CCc3cc(Cl)cc(Br)c32)CC1 [Example 26]	0.056 µM	136 to 138 °C	–	–
COC(=O)CNC(=O)Cc1ccc(CC(=O)N2CCC([C@H]3c4ncc(Br)cc4CCc4cc(Cl)cc(Br)c43)CC2)cc1 [Example 18]	0.0053 µM	94 to 97 °C	0.45 µM	–
COC(=O)[C@H]1C[C@@H]1C(=O)N1CCC([C@H]2c3ncc(Br)cc3CCc3cc(Cl)cc(Br)c32)CC1 [30 (compound 55.1)]	0.025 µM	–	–	–
O=C(O)C1CCC(CC(=O)N2CCC([C@H]3c4ncc(Br)cc4CCc4cc(Cl)cc(Br)c43)CC2)CC1 (stereo partly drawn) [Example 12]	0.0019 µM	–	0.01 µM	> 0.5 µM
O=C(O)C[C@H]1CC[C@H](C(=O)N2CCC([C@H]3c4ncc(Br)cc4CCc4cc(Cl)cc(Br)c43)CC2)CC1 [Example 36]	0.0102 µM	–	0.5 µM	–
NC(=O)Cc1cccc(CC(=O)N2CCC([C@H]3c4ncc(Br)cc4CCc4cc(Cl)cc(Br)c43)CC2)c1 [Example 16]	0.0063 µM	119 to 125 °C	0.375 µM	–
O=C(O)c1ccccc1CC(=O)N1CCC([C@H]2c3ncc(Br)cc3CCc3cc(Cl)cc(Br)c32)CC1 [Example 1]	0.066 µM	229 °C (dec.)	–	–
NC(=O)CC1CCC(CC(=O)N2CCC(C3c4ncc(Br)cc4CCc4cc(Cl)cc(Br)c43)CC2)CC1 (stereo not drawn) [Example 22]	0.0063 µM	103 to 110 °C	0.022 µM	–
O=C(Cc1ccc(CC(=O)N2CCC([C@H]3c4ncc(Br)cc4CCc4cc(Cl)cc(Br)c43)CC2)cc1)NCCO [Example 20]	> 0.14 µM	94 to 100 °C	–	–
CC(C)(C)OC(=O)C=C1CCC(=CC(=O)N2CCC([C@H]3c4ncc(Br)cc4CCc4cc(Cl)cc(Br)c43)CC2)CC1 [Example 7]	0.11 µM	113 to 117 °C	–	–
COC(=O)[C@@H]1C[C@H]1C(=O)N1CCC([C@H]2c3ncc(Br)cc3CCc3cc(Cl)cc(Br)c32)CC1 [Example 29 (compound 54.1)]	0.034 µM	–	–	–
O=C(O)C=C1CCC(=CC(=O)N2CCC([C@H]3c4ncc(Br)cc4CCc4cc(Cl)cc(Br)c43)CC2)CC1 [Example 14]	0.0052 µM	161 to 169 °C	0.055 µM	–
CC(C)(C)OC(=O)CC1CCC(CC(=O)N2CCC([C@H]3c4ncc(Br)cc4CCc4cc(Cl)cc(Br)c43)CC2)CC1 (stereo partly drawn) [Example 6]	0.019 µM	86 to 90 °C	–	–

Compound	IC50 [1]	melting point	IC50 [2]	IC50 [3]
CONC(=O)Cc1ccc(CC(=O)N2CCC([C@H]3c4ncc(Br)cc4CCc4cc(Cl)cc(Br)c43)CC2)cc1 [Example 19]	0.0047 µM	116 to 123 °C	0.09 µM	–
O=C(O)CC1CCC(CC(=O)N2CCC([C@H]3c4ncc(Br)cc4CCc4cc(Cl)cc(Br)c43)CC2)CC1 (stereo partly drawn) [Example 13]	0.0015 µM	–	0.01 µM	> 0.5 µM
NC(=O)[C@H]1C[C@@H]1C(=O)N1CCC([C@H]2c3ncc(Br)cc3CCc3cc(Cl)cc(Br)c32)CC1 [30 (compound 55.0)]	0.0062 µM	–	0.05 µM	–
NC(=O)[C@@H]1C[C@H]1C(=O)N1CCC([C@H]2c3ncc(Br)cc3CCc3cc(Cl)cc(Br)c32)CC1 [Example 29 (compound 54.0)]	0.0083 µM	–	–	–
O=C(Cc1ccccc1C(=O)N1CCC([C@H]2c3ncc(Br)cc3CCc3cc(Cl)cc(Br)c32)CC1)N1CCOCC1 [Example 11]	0.25 µM	127 to 128 °C	–	–
O=C(NCc1ccncc1)c1ccccc1CC(=O)N1CCC([C@H]2c3ncc(Br)cc3CCc3cc(Cl)cc(Br)c32)CC1 [Example 24]	0.047 µM	134 to 138 °C	–	–
NC(=O)Cc1ccc(CC(=O)N2CCC([C@H]3c4ncc(Br)cc4CCc4cc(Cl)cc(Br)c43)CC2)cc1 [Example 15]	0.0036 µM	–	0.1 µM	> 0.5 µM
O=C(NO)c1ccccc1CC(=O)N1CCC([C@H]2c3ncc(Br)cc3CCc3cc(Cl)cc(Br)c32)CC1 [Example 27]	0.053 µM	156 to 157 °C	–	–
COC(=O)CNC(=O)c1ccccc1CC(=O)N1CCC([C@H]2c3ncc(Br)cc3CCc3cc(Cl)cc(Br)c32)CC1 [Example 25]	0.036 µM	116 to 118 °C	–	–
NC(=O)C1CCC(CC(=O)N2CCC(C3c4ncc(Br)cc4CCc4cc(Cl)cc(Br)c43)CC2)CC1 (stereo not drawn) [Example 23]	0.0046 µM	145 to 152 °C	0.018 µM	–
COC(=O)CNC(=O)Cc1cccc(CC(=O)N2CCC([C@H]3c4ncc(Br)cc4CCc4cc(Cl)cc(Br)c43)CC2)c1 [Example 17]	0.0095 µM	86 to 90 °C	0.41 µM	–
CC(C)(C)OC(=O)C[C@H]1CC[C@H](C(=O)N2CCC([C@H]3c4ncc(Br)cc4CCc4cc(Cl)cc(Br)c43)CC2)CC1 [Example 10]	0.091 µM	98 to 102 °C	–	–
O=C(O)Cc1cccc(CC(=O)N2CCC([C@H]3c4ncc(Br)cc4CCc4cc(Cl)cc(Br)c43)CC2)c1 [Example 4]	0.0041 µM	205 °C (dec.)	0.4 µM	–
O=C(O)C[C@H]1CC[C@@H](C(=O)N2CCC([C@H]3c4ncc(Br)cc4CCc4cc(Cl)cc(Br)c43)CC2)CC1 [Example 35]	0.0033 µM	–	0.07 µM	–
COC(=O)Cc1ccc(CC(=O)N2CCC([C@H]3c4ncc(Br)cc4CCc4cc(Cl)cc(Br)c43)CC2)cc1 [Example 34]	0.0086 µM	81 to 86 °C	0.18 µM	–
